Series [1] has as its system AEP. The series is described as follows: Oxygen-glucose deprivation (OGD) in primary neurons, AEP activity. The format is cell-based. The settings on record: 0.1 μM or 1.0 μM compound. The method, then: (§1) A. AEP activity, measured in primary neuronal cultures with 5 μM Cbz-Ala-Ala-Asn-AMC (x-axis denotes neurons were treated with 0.1 μM or 1.0 μM specified compound). B. Caspase activity, measured in primary neuronal cultures with 5 μM Ac-Asp-Glu-Val-Asp-AMC. C. Cathepsin activity, measured in primary neuronal cultures with 5 μM D-Val-Leu-Lys-AMC. D. Inhibition of APP cleavage. Lysates of primary cortical neurons pre-incubated with compounds for 30 min, underwent OGD for 4 hrs, were reperfused for 18 hrs (normoxia neurons remained at normoxic conditions). E. APP can be cleaved in a dose-dependent manner. Lysates of primary cortical neurons pre-incubated with compounds for 30 min, underwent OGD for 4 hrs, were reperfused for 18 hrs (normoxia neurons remained at normoxic conditions).
(§2) Depriving cells of oxygen and glucose is a cellular model that is employed to trigger acidosis in cultured cells. The efficacy of the compounds in a cellular model of oxygen-glucose deprivation (OGD) was determined in an effort to mimic the effects of stroke in primary cultured neurons. As a result of depriving neurons of oxygen and glucose-containing medium, AEP activity was doubled (FIG. 7A, ‘DMSO-Norm’ compared to ‘DMSO-OGD’), while Caspase-3 and Cathepsin activities remained relatively unchanged. […]

For series [2], the system named is Caspase-3. In words: OGD in primary neurons, Caspase activity. The format is cell-based. The settings on record: 0.1 μM or 1.0 μM compound. The method, then: as §1, §2
For series [3], the system named is 5XFAD mice. In words: Amyloid plaque staining and Aβ ELISA in 5XFAD mice. The format is in vivo, mouse. The settings on record: oral once daily for 3 months. The method, then:
A. Thioflavin-S staining of amyloid plaques in the hippocampus (HP), motor cortex (MC), and frontal cortex (FC) of 5XFAD mouse brain sections. Scale bar, 50 μm. B. Quantitative analysis of amyloid plaques. […] F. The percentage of time spent in the target quadrant in the probe trail.
Free-floating 30-μm-thick serial sections were treated with 0.3% hydrogen peroxide for 10 min, and then incubated with anti-AEP-cleaved APP (1:500) or anti-Aβ (1:500) overnight. The signal was developed using Histostain-SP kit (#956543, invitrogen) according to the manufacturer's instructions.
After rinsed in distilled water, the sections were transferred to blocking solution containing 1% sodium hydroxide and 0.9% hydrogen peroxide for 20 min. The sections were incubated for 5 s in 0.25% acidic acid, then washed in distilled water and stained for 5 min with 0.0125% Thioflavin-S in 50% ethanol. The sections were washed with 50% ethanol and placed in distilled water. Then the sections were covered with glass cover using mounting solution.
The mice brains were homogenized in 8X mass of 5 M guanidine HCl/50 mM Tris HCl (pH 8.0), and incubated at room temperature for 3 h. Then the samples were diluted with cold reaction buffer (phosphate buffered saline with 5% BSA and 0.03% Tween 20, supplemented with protease inhibitor cocktail), and centrifuged at 16 000 g for 20 min at 4° C. The supernatant were analysed by human Aβ42 ELISA kit according to the manufacturer's instructions (KHB3441, Invitrogen). The Aβ42 concentrations were determined by comparison with the standard curve.

For series [4], the system named is C57BL/6J mice. The series is described as follows: Acute and chronic toxicity in C57BL/6J mice. The settings on record: 100 mg/kg.
In series [5] the target is T1, AEP in human B lymphoblastoid Pala cells (Homo sapiens, UniProt Q99538).
T1 construct: human B lymphoblastoid pala cells, which are rich in endogenous AEP; endogenous in cells; host or cells: Pala cells (human B lymphoblastoid)
T1 sequence (Q99538 18-323): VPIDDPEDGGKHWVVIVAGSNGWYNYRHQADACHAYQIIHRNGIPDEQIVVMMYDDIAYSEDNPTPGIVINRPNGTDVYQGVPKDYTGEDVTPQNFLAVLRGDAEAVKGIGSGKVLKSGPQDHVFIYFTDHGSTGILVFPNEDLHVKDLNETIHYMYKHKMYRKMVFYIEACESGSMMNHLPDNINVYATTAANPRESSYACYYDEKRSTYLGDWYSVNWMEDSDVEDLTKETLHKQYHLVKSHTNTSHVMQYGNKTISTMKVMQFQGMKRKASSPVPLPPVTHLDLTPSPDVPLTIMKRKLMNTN
In words: IC50 assays in intact Pala cells. The format is cell-based. The settings on record: 2 hr incubation, residual AEP activity in lysate. The method, then:
The cells were incubated with inhibitors for 2 hrs then cells washed, harvested and lysed and the residual enzymatic activity was determined. Lysate was normalized by Bradford assay and the experiment was performed in triplicate and the mean results and SEM were plotted.
In an attempt to assess the activity of the compounds in intact cells, the compounds were incubated with human B lymphoblastoid pala cells, which are rich in endogenous AEP and have been used for inhibiting AEP in cellular assay.
Human B Lymphoblastoid Pala cells, which express high concentrations of AEP, were cultured in RPMI-1640, supplemented with 10% FBS, 2 mM L-Glutamine, 100 units/mL Penicillin, 100 μg/mL Streptomycin. Various concentrations of each compound were incubated with the Pala cells for 2 hr at 37° C. Cells were collected, washed twice with PBS and lysed in Lysis Buffer (20 mM Citric Acid, 60 mM Disodium Hydrogen Orthophosphate, 1 mM EDTA, 0.1% CHAPS, pH 5.8). The protein concentrations were normalized by Bradford assay and lysates were assayed with 5 μ,M Cbz-Ala-Ala-Asn-AMC. […] Data were analyzed with GraFit version 5.0.11 software package.

“Also recorded” adds a separate entry of the source.

The values below come from patent US20170029388A1, “Treatment of Neurodegenerative Diseases with Asparagine Endopeptidase (AEP) Inhibitors and Compositions Related Thereto” (INTERCONTINENTAL GREAT BRANDS LLC, priority 2014, published 2017).

For `Nc1ccc(N2CCOCC2)c2nonc12` [Compound 11], in series [1], the “AEP activity in OGD-treated neurons” value is reported as “marked dose-dependent decrease”. For the same compound, the “Caspase-3 activity in OGD-treated neurons” value in series [2] is recorded as “not observed”. The “amyloid plaque deposition (Thioflavin S)” value in series [3] (hippocampus, motor cortex, frontal cortex) is “decreased; also recorded: attenuated”. Further, in series [3], the “concentration of Aβ 1-40 in brain lysates” value is “decreased” and the “concentration of Aβ 1-42 in brain lysates” value is recorded as “decreased”. Also, the systemic toxicity entry in series [4] is listed as “does not exhibit systemic toxicity”. Moreover, in series [4] (oral gavage, 30-day period), the body weight result is “no significant change”; the “complete blood count (CBC) parameters” value is “within the normal range”; the “immunohistochemical staining, drug-treated vs vehicle-treated” value is “no major differences”.
For `Sc1nnc(Nc2ccccc2)s1` [Compound BB1], the “IC50 in intact Pala cells” value in series [5] is given as “slightly larger IC50 values”.
